# From ChEMBL document CHEMBL1201862, “PubChem BioAssay data set” (2004)
#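 Dose response: 5 concentrations. Exposure: 48 h. Format: 96-well plates. Endpoint: linear interpolation; highest concentration if not reached. At the GI50, growth is halved.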 Active and inactive are the calls of the source. Rule as the data show it: active = GI50 up to about 1.1 µM and inactive = higher.
# Legend:
# Assay in all cases: NCI anticancer screen, dose series, 48 h
# IGROV-1 = tested on: IGROV-1
# UO-31 = tested on: UO-31
# OVCAR-4 = tested on: OVCAR-4
# SK-MEL-5 = tested on: SK-MEL-5
# TK-10 = tested on: TK-10
# SK-MEL-2 = tested on: SK-MEL-2
# OVCAR-5 = tested on: OVCAR-5
# UACC-62 = tested on: UACC-62
# SK-MEL-28 = tested on: SK-MEL-28
# HCT-116 = tested on: HCT-116
# SNB-75 = tested on: SNB-75
# SF-295 = tested on: SF-295
# HOP-62 = tested on: HOP-62
# A549 = tested on: A549
# OVCAR-3 = tested on: OVCAR-3
# RXF 393 = tested on: RXF 393
# HT-29 = tested on: HT-29
# K562 = tested on: K562
# COLO 205 = tested on: COLO 205
# LOX IMVI = tested on: LOX IMVI
SMILES,GI50 (IGROV-1),GI50 (UO-31),GI50 (OVCAR-4),GI50 (SK-MEL-5),GI50 (TK-10),GI50 (SK-MEL-2),GI50 (OVCAR-5),GI50 (UACC-62),GI50 (SK-MEL-28),GI50 (HCT-116),GI50 (SNB-75),GI50 (SF-295),GI50 (HOP-62),GI50 (A549),GI50 (OVCAR-3),GI50 (RXF 393),GI50 (HT-29),GI50 (K562),GI50 (COLO 205),GI50 (LOX IMVI)
CCCCCCCCC[C@@H]1C[C@H](O)[C@H](Cc2ccccc2)N1C(=O)OC(C)(C)C,18.6 µM (inactive),14.3 µM (inactive),17.7 µM (inactive),19.1 µM (inactive),15.5 µM (inactive),15.3 µM (inactive),15.1 µM (inactive),17 µM (inactive),19.7 µM (inactive),17.9 µM (inactive),21.9 µM (inactive),15.8 µM (inactive),19.9 µM (inactive),18 µM (inactive),20.3 µM (inactive),17.7 µM (inactive),16.7 µM (inactive),37.4 µM (inactive),17 µM (inactive),
C/C(=C\c1ccc(Cl)cc1)C(C)(C)C(=O)O,> 100 µM (inactive),> 100 µM (inactive),> 100 µM (inactive),> 100 µM (inactive),> 100 µM (inactive),> 100 µM (inactive),> 100 µM (inactive),> 100 µM (inactive),> 100 µM (inactive),> 100 µM (inactive),> 100 µM (inactive),> 100 µM (inactive),> 100 µM (inactive),> 100 µM (inactive),> 100 µM (inactive),> 100 µM (inactive),> 100 µM (inactive),1.95 µM (inactive),> 100 µM (inactive),
CC1=C2C(=C[C@H]3[C@]4(C)CCCC(C)(C)[C@H]4CC[C@]34O[C@H]24)OC1=O,> 100 µM (inactive),> 100 µM (inactive),> 100 µM (inactive),> 100 µM (inactive),> 100 µM (inactive),> 100 µM (inactive),> 100 µM (inactive),> 100 µM (inactive),> 100 µM (inactive),> 100 µM (inactive),> 100 µM (inactive),> 100 µM (inactive),> 100 µM (inactive),> 100 µM (inactive),,> 100 µM (inactive),> 100 µM (inactive),> 100 µM (inactive),> 100 µM (inactive),
O=C1C2C(C(=O)N1OS(=O)(=O)c1ccccc1)N(Cc1ccccc1)C(=O)N2Cc1ccccc1 (stereo not given),> 100 µM (inactive),> 100 µM (inactive),> 100 µM (inactive),> 100 µM (inactive),> 100 µM (inactive),,> 100 µM (inactive),> 100 µM (inactive),> 100 µM (inactive),> 100 µM (inactive),57.1 µM (inactive),> 100 µM (inactive),> 100 µM (inactive),> 100 µM (inactive),> 100 µM (inactive),70.8 µM (inactive),> 100 µM (inactive),> 100 µM (inactive),> 100 µM (inactive),> 100 µM (inactive)
CC(C)CCC1CC2C(=O)N(c3ccccc3)C(=O)C2c2[nH]c3ccccc3c21 (stereo not given),13.4 µM (inactive),6.28 µM (inactive),4.76 µM (inactive),0.347 µM (active),4.53 µM (inactive),,17.5 µM (inactive),6.21 µM (inactive),4.68 µM (inactive),,2.22 µM (inactive),0.509 µM (active),,0.412 µM (active),0.885 µM (active),0.83 µM (active),3.4 µM (inactive),0.571 µM (active),1.38 µM (inactive),1.08 µM (active)
CN1C[C@H]2[C@@H](C1=O)[C@H](c1ccccc1)ON2C,> 100 µM (inactive),> 100 µM (inactive),> 100 µM (inactive),> 100 µM (inactive),> 100 µM (inactive),> 100 µM (inactive),> 100 µM (inactive),,> 100 µM (inactive),> 100 µM (inactive),> 100 µM (inactive),> 100 µM (inactive),> 100 µM (inactive),> 100 µM (inactive),> 100 µM (inactive),,> 100 µM (inactive),> 100 µM (inactive),> 100 µM (inactive),> 100 µM (inactive)
